{"source": "patent US12239643B2", "about": "“Therapeutic agent for inflammatory diseases, autoimmune diseases, fibrotic diseases, and cancer diseases” (MEIJI SEIKA PHARMA CO., LTD., priority 2018, dated 2025)", "key": {"TNFα [1]": {"system": "TNFα", "experiment": "Cytokine suppression using whole human blood: TNFα (lipopolysaccharide stimulus)", "assay_type": "cell-based", "settings": "read-out: TNFα Inhibitory Activity, Human Whole Blood (Test Example 3)", "protocol": "The test compound dissolved in dimethyl sulfoxide was added to a 96-well plate, and RPMI-1640 medium and human peripheral blood containing sodium heparin were added, followed by culture at 37° C. under 5% CO2 for 1 hour. A medium containing only dimethyl sulfoxide instead of the test compound was added to the control well. To each well, lipopolysaccharide (final concentration 10 ng/mL) as a TNFα production stimulant, or phytohaemagglutinin (final concentration 20 μg/mL) as an IL-17A production stimulant, or CytoStim reagent ( 1/100 concentration) and CD28 antibody (final concentration 2.5 ng/mL) as an IL-4 production stimulant and an IL-5 production stimulant were added, followed by culture at 37° C. under 5% CO2. The culture was carried out for about 18 hours for the evaluation of the amount of TNFα, and for about 48 hours for the evaluation of the amounts of IL-17A, IL-4, and IL-5.\nAfter collecting the culture supernatant after culturing, the amount of each cytokine was measured by the sandwich ELISA method. The cytokine production suppression rate (inhibition rate) by the test compound was calculated by the following formula from the cytokine production amount when the test compound was added, with the cytokine production amount for the control well as 100%. Inhibition Rate={1−(Cytokine Amount at Addition of Each Test Compound)/(Cytokine Amount for Control Well)}×100\nIn addition, the cytokine inhibitory activity (concentration for the inhibition rate of 50%) of the test compound was calculated from the inhibition curves based on the inhibition rates for various concentrations of the test compound.\nThe measurement results obtained by measuring the TNFα inhibitory activity and IL-5 inhibitory activity (50% inhibitory concentration) of the test compounds by the above method were evaluated in accordance with the following evaluated basis; A: less than 100 nM, B: 100 nM or more and less than 500 nM, and C: 500 nM or more. In addition, the measurement results obtained by measuring the IL-17A inhibitory activity and IL-4 inhibitory activity (50% inhibitory concentration) of the test compounds were evaluated in accordance with the following evaluated basis; A: less than 500 nM, B: 500 nM or more and less than 5000 nM, and C: 5000 nM or more."}, "[2]": {"system": "oxazolone-induced auricle edema, BALB/c mice", "experiment": "Hapten repeated application mouse chronic dermatitis model (oral, topical)", "assay_type": "in vivo", "settings": "for Mouse Chronic Dermatitis Model (Test Example 8), Oral: edema suppression rate: 0.3 to 10 mg/kg twice a day for 10 days; for Mouse Chronic Dermatitis Model (Test Example 8), Topical: edema suppression rate: 20 μL of 0.3 to 3% solution once or twice a day for 10 days", "method_in_brief": "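Female BALB/c mice aged 7–8 weeks were sensitised abdominally with 3% oxazolone, then challenged on both ears with 1% oxazolone. From week 1, test compound was given for 10 days orally at 0.3–10 mg/kg twice daily in 0.5% MC, or topically at 0.3–3% once or twice daily. Ear-thickness change measured by dial gauge gave edema suppression versus vehicle control.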"}, "TNFα [3]": {"system": "TNFα", "experiment": "Cytokine suppression using human peripheral blood mononuclear cells: TNFα", "assay_type": "cell-based", "settings": "read-out: TNFα Inhibitory Activity, Human PBMC (Test Example 4)", "protocol": "First, peripheral blood mononuclear cells (PBMC) were separated from whole blood by specific gravity centrifugation. Then, the isolated peripheral blood mononuclear cells were added to RPMI-1640 medium (containing 10% fetal bovine serum, penicillin, streptomycin, L-glutamine, and 2-mercaptoethanol), and cultured in a 96-well plate at 37° C. under 5% CO2 for 0 to 1 hour. The test compound dissolved in dimethyl sulfoxide was added to each well, followed by further culture at 37° C. under 5% CO2 for 1 hour. A medium containing only dimethyl sulfoxide instead of the test compound was added to the control well. To each well, lipopolysaccharide (final concentration 1 ng/mL) as a TNFα production stimulant and an IL-23 production stimulant, or concanavalin A (final concentration 20 μg/mL) as an IL-17A production stimulant was added, followed by culture at 37° C. under 5% CO2. In addition, as IL-4 production stimulus, IL-5 production stimulus, and IL-13 production stimulus, PBMC was seeded on a 96-well plate previously coated with a CD3 antibody (final concentration 3 μg/mL), and a CD28 antibody (final concentration 5 ng/mL) was added. The culture was carried out for about 18 hours for the evaluation of the amounts of TNFα and IL-23, and about 48 hours for the evaluation of the amounts of IL-17A, IL-4, IL-5, and IL-13. After collecting the culture supernatant after culturing, the amount of each cytokine was measured by the sandwich ELISA method in the same manner as in Test Example 3, and the cytokine production suppression rate (inhibition rate) and the cytokine inhibitory activity (concentration for the inhibition rate of 50%) of each test compound were calculated.\nThe measurement results obtained by measuring the TNFα inhibitory activity and IL-5 inhibitory activity (50% inhibitory concentration) of the test compounds by the above method were evaluated in accordance with the following evaluated basis; A: less than 10 nM, B: 10 nM or more and less than 100 nM, and C: 100 nM or more. In addition, the measurement results obtained by measuring the IL-17A inhibitory activity, IL-23 inhibitory activity, IL-4 inhibitory activity, and IL-13 inhibitory activity (50% inhibitory concentration) of the test compounds were evaluated in accordance with the following evaluated basis; A: less than 500 nM, B: 500 nM or more and less than 5000 nM, and C: 5000 nM or more."}, "[4]": {"settings": "human PBMC, lipopolysaccharide 1 ng/mL"}, "[5]": {"settings": "Homo sapiens, human whole blood"}}}
{"compound": "CC(O)C(F)(F)Oc1ccc(-c2nccs2)c2oc(N3CC4CC(C3)N4)nc12", "note": "(single isomer, unassigned) [Example 252, 1-((2-(3,6-Diazabicyclo[3.1.1]heptan-3-yl)-7-(thiazol-2-yl)benzo[d]oxazol-4-yl)oxy)-1,1-difluoropropan-2-ol]", "values": [{"measurement": "IC50", "setting": "TNFα [1]; human whole blood", "value": "< 100", "unit": "nM"}, {"measurement": "Mouse Chronic Dermatitis Model (Test Example 8), Oral: edema suppression rate", "setting": "[2]", "value": "A (A: 70% or more)"}, {"measurement": "Mouse Chronic Dermatitis Model (Test Example 8), Topical: edema suppression rate", "setting": "[2]", "value": "A (A: 100% or more)"}, {"measurement": "IC50", "setting": "TNFα [3]; [4]", "value": "< 10", "unit": "nM"}]}
{"compound": "FC(F)(F)Oc1ccc(-c2nccs2)c2oc(N3CC4CC(C3)N4)nc12", "note": "[Example 29, 2-(3,6-Diazabicyclo[3.1.1]heptan-3-yl)-7-(thiazol-2-yl)-4-(trifluoromethoxy)benzo[d]oxazole]", "values": [{"measurement": "IC50", "setting": "TNFα [1]; [5]", "value": "< 100", "unit": "nM"}, {"measurement": "Mouse Chronic Dermatitis Model (Test Example 8), Oral: edema suppression rate", "setting": "[2]", "value": "A (A: 70% or more)"}, {"measurement": "Mouse Chronic Dermatitis Model (Test Example 8), Topical: edema suppression rate", "setting": "[2]", "value": "A (A: 100% or more)"}]}
{"compound": "CC(C)(O)C(F)(F)Oc1ccc(-c2nccs2)c2oc(N3CC4CC(C3)N4)nc12", "note": "[Example 248, 1-((2-(3,6-Diazabicyclo[3.1.1]heptan-3-yl)-7-(thiazol-2-yl)benzo[d]oxazol-4-yl)oxy)-1,1-difluoro-2-methylpropan-2-ol]", "values": [{"measurement": "IC50", "setting": "TNFα [1]; [5]", "value": "< 100", "unit": "nM"}, {"measurement": "Mouse Chronic Dermatitis Model (Test Example 8), Oral: edema suppression rate", "setting": "[2]", "value": "A (A: 70% or more)"}, {"measurement": "Mouse Chronic Dermatitis Model (Test Example 8), Topical: edema suppression rate", "setting": "[2]", "value": "A (A: 100% or more)"}, {"measurement": "IC50", "setting": "TNFα [3]; [4]", "value": "< 10", "unit": "nM"}]}
{"compound": "CCOc1cc([C@@H](CS(C)(=O)=O)N2C(=O)c3cccc(NC(C)=O)c3C2=O)ccc1OC", "note": "[apremilast, reference compound]", "values": [{"measurement": "IC50", "setting": "TNFα [1]; Homo sapiens", "value": "> 500", "unit": "nM"}, {"measurement": "Mouse Chronic Dermatitis Model (Test Example 8), Oral: edema suppression rate", "setting": "[2]", "value": "B (B: 40% or more and less than 70%)"}, {"measurement": "IC50", "setting": "TNFα [3]; Homo sapiens, PBMC", "value": "10 to 100", "unit": "nM"}]}
